SMILES strings stand for the structures.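 Grown in 96-well plates, cells were treated for 48 hours with each compound at five concentrations. Insufficient inhibition: endpoint recorded as highest concentration tested. The concentration for 50% growth inhibition is given as GI50.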 The source made the active and inactive calls. No stated cut-off is given here; in the data, active = GI50 up to about 1.1 µM and inactive = higher. Where only a bound is given, the exact number is not on record here.

Some test systems named below: DU-145; HCT-15; BT-549; M14; 786-0; NCI-H23; U-251; A498; Hs-578T; SR; NCI-H460; HCT-116; NCI-H226; CCRF-CEM; KM-20L2; DMS-273; SNB-78; LXFL 529; DLD-1.
Assay in all cases: NCI tumour cell line growth inhibition, 48 h

For the molecule `C=Cc1cnc([N+](=O)[O-])n1C`, the GI50 was 37.1 µM (inactive) in the experiment on DU-145; 50.2 µM in the experiment on HCT-15; 46.3 µM (inactive) with BT-549; 65.5 µM (inactive) in the experiment on M14; > 100 µM (inactive) with 786-0; 98.9 µM (inactive) in the experiment on NCI-H23. Further, the GI50 is > 100 µM (inactive) in the experiment on U-251; 34.3 µM (inactive) in the experiment on A498; 35.7 µM (inactive) in the experiment with Hs-578T; 20.7 µM (inactive) in the experiment with SR; 56.8 µM (inactive) in the experiment with NCI-H460; 57.1 µM (inactive) in the experiment on HCT-116. The GI50 is > 100 µM (inactive) in the experiment with NCI-H226 and 46.1 µM (inactive) in the experiment with CCRF-CEM.

On to `O=c1[nH]nc(-c2ccccc2)n1/N=C/c1ccccc1Cl`, for which the GI50 with DU-145 was 41.3 µM (inactive); with HCT-15, 31.6 µM; with BT-549 it was 37.1 µM (inactive); with M14, 35.4 µM (inactive); with 786-0, 32.5 µM (inactive); in the experiment on NCI-H23, 34.7 µM (inactive). Also, the GI50 was 38.5 µM (inactive) in the experiment with U-251; 30.1 µM (inactive) in the experiment with A498; 16.2 µM (inactive) in the experiment with Hs-578T; 30.3 µM (inactive) in the experiment with SR; 13 µM (inactive) in the experiment with NCI-H460; 33.9 µM (inactive) in the experiment on HCT-116. Further, the GI50 in the experiment on NCI-H226 was 30.8 µM (inactive); in the experiment with CCRF-CEM, 28.1 µM (inactive).

Regarding `CCOC(=O)c1ccc(C(=O)n2ccnc2)[nH]1`, the GI50 with DU-145 was > 100 µM (inactive); in the experiment with HCT-15, more than 100 µM; with BT-549, > 100 µM (inactive); with M14 it was > 100 µM (inactive); in the experiment with 786-0, > 100 µM (inactive); with NCI-H23, > 100 µM (inactive). Besides, the GI50 with U-251, with A498, in the experiment on Hs-578T, with SR, in the experiment with NCI-H460 and with HCT-116 was > 100 µM (inactive) in each case. Further, the GI50 in the experiment with NCI-H226 and in the experiment on CCRF-CEM was > 100 µM (inactive) each time.

On to `C=C1CC(C)(COc2ccc3c(C)c(C)c(=O)oc3c2C)OC1=O` (configuration not stated), for which the GI50 with DU-145 is 2.51 µM (inactive); in the experiment with HCT-15, 1.56 µM; in the experiment with BT-549, 1.5 µM (inactive); in the experiment with M14, 2.56 µM (inactive); in the experiment on 786-0 it was 1.4 µM (inactive); in the experiment with NCI-H23, 1.82 µM (inactive). The GI50 in the experiment on U-251 was 6.56 µM (inactive); with A498, 2.22 µM (inactive); in the experiment on Hs-578T, 1.9 µM (inactive); with SR, 0.995 µM (active); in the experiment with NCI-H460, 5.33 µM (inactive); in the experiment on HCT-116, 0.879 µM (active). Besides, the figures for the GI50 in the experiment on NCI-H226 and in the experiment on CCRF-CEM were 13.7 µM (inactive) and 0.411 µM (active), respectively.

Consider `C=C(NC(=O)C(=C)NC(=O)c1ccc2c(n1)-c1coc(n1)C(=C)NC(=O)C(=C)NC(=O)c1nc(oc1C)C(=C)NC(=O)C(C(C)(C)O)NC(=O)C(=C)NC(=O)c1coc(n1)/C(=C/C)NC(=O)[C@H]([C@@H](C)O)NC(=O)c1csc-2n1)C(N)=O` (some centres not stated), for which the GI50 is > 87.5 µM (inactive) with DU-145; more than 87.5 µM with HCT-15; 37.3 µM (inactive) with BT-549; 55 µM (inactive) in the experiment with M14; > 87.5 µM (inactive) in the experiment on 786-0; > 87.5 µM (inactive) in the experiment with NCI-H23. Besides, the GI50 is > 87.5 µM (inactive) in the experiment on U-251; > 87.5 µM (inactive) in the experiment with A498; > 87.5 µM (inactive) with Hs-578T; > 87.5 µM (inactive) in the experiment on SR; 59.2 µM (inactive) in the experiment with NCI-H460; > 87.5 µM (inactive) in the experiment with HCT-116. Moreover, the GI50 in the experiment on NCI-H226 and in the experiment on CCRF-CEM was > 87.5 µM (inactive) throughout.

With `C=C1COC(/C=C(\C)CC/C=C(\C)CCl)C1` (configuration not stated), the GI50 is more than 100 µM in the experiment with HCT-15; > 100 µM (inactive) in the experiment with KM-20L2; > 100 µM (inactive) with M14; > 100 µM (inactive) in the experiment on 786-0; > 100 µM (inactive) in the experiment on DMS-273; > 100 µM (inactive) with NCI-H23. For the same molecule, the GI50 in the experiment on U-251, in the experiment with A498, with SNB-78, with NCI-H460, in the experiment with HCT-116 and in the experiment on NCI-H226 was > 100 µM (inactive) throughout. In addition, the GI50 with CCRF-CEM, in the experiment on LXFL 529 and with DLD-1 was > 100 µM (inactive) each time.

Regarding `CC(C)=CCN1c2ccc(Cl)cc2NC(=O)CC1C` (configuration not stated), the GI50 in the experiment on DU-145 is 42.1 µM (inactive); with HCT-15, 31.4 µM; in the experiment on BT-549, 21.8 µM (inactive); in the experiment on M14, 17.8 µM (inactive); in the experiment with 786-0, 18.2 µM (inactive); in the experiment on NCI-H23, 22.6 µM (inactive). Also, the GI50 with U-251 is 27.5 µM (inactive); with A498, 21.8 µM (inactive); in the experiment with Hs-578T it was 24.3 µM (inactive); in the experiment with SR it was 5.45 µM (inactive); with NCI-H460 it was 17.5 µM (inactive); in the experiment on HCT-116, 18.4 µM (inactive). Moreover, the GI50 is 7.94 µM (inactive) in the experiment with NCI-H226 and 38.6 µM (inactive) in the experiment with CCRF-CEM.

Consider `CCOC(=O)c1cn2c(n1)sc1cc([N+](=O)[O-])ccc12`, for which the GI50 in the experiment on DU-145 is > 100 µM (inactive); with HCT-15, more than 100 µM; in the experiment with BT-549, 74.6 µM (inactive); with M14 it was > 100 µM (inactive); with 786-0, 43.1 µM (inactive); in the experiment on NCI-H23, > 100 µM (inactive). Moreover, the GI50 in the experiment with U-251 was 76 µM (inactive); in the experiment with A498, > 100 µM (inactive); in the experiment on Hs-578T it was > 100 µM (inactive); with SR, > 100 µM (inactive); in the experiment with NCI-H460, > 100 µM (inactive); in the experiment with HCT-116 it was > 100 µM (inactive). In addition, the GI50 in the experiment on NCI-H226 and in the experiment with CCRF-CEM was > 100 µM (inactive) each time.

In the case of `CC(=O)/C=C1\CC(=O)N(C)c2ccccc2N1`, the GI50 with M14, with 786-0, with DMS-273, in the experiment on NCI-H23, in the experiment on U-251 and in the experiment on SR was > 100 µM (inactive) each time. Besides, the GI50 with SNB-78, in the experiment with NCI-H460, in the experiment with HCT-116, with NCI-H226, with CCRF-CEM and in the experiment on LXFL 529 was > 100 µM (inactive) each time. The GI50 in the experiment on DLD-1 is 2.86 µM (inactive).

As for `COc1cc(C2C(C(=O)NCc3ccccc3)=C(C)NC(C)=C2C(=O)NCc2ccccc2)ccc1O`, the GI50 is 27.6 µM with HCT-15; 33.2 µM (inactive) with KM-20L2; 34.4 µM (inactive) with M14; 46.2 µM (inactive) with 786-0; 29.4 µM (inactive) with DMS-273; 31.7 µM (inactive) with NCI-H23. Also, the GI50 in the experiment on U-251 was 28.6 µM (inactive); with A498, 84.9 µM (inactive); with SR, 20.2 µM (inactive); in the experiment with SNB-78, 32.8 µM (inactive); in the experiment with NCI-H460 it was 24.3 µM (inactive); in the experiment with HCT-116 it was 44.7 µM (inactive). For the same molecule, the GI50 was 37.9 µM (inactive) in the experiment with NCI-H226, 26.3 µM (inactive) with CCRF-CEM and 28.6 µM (inactive) in the experiment with LXFL 529.

`CCCCCCCC(=O)OCC1OC(n2cc(F)c(=O)[nH]c2=O)C(NC(=O)OCc2ccccc2)C(OC(=O)CCCCCCC)C1O` (configuration not stated): the GI50 in the experiment with HCT-15 is 26.5 µM; in the experiment on KM-20L2 it was 34.7 µM (inactive); with M14, 25.4 µM (inactive); with 786-0, 23.5 µM (inactive); in the experiment with DMS-273 it was 15.3 µM (inactive); with NCI-H23, 41.4 µM (inactive). In addition, the GI50 in the experiment on U-251 is 22.9 µM (inactive); with A498, > 100 µM (inactive); in the experiment on SR, 16.7 µM (inactive); with SNB-78 it was 41.9 µM (inactive); in the experiment with NCI-H460 it was 35.5 µM (inactive); in the experiment on HCT-116, 30.1 µM (inactive). In addition, the values for the GI50 with CCRF-CEM and with LXFL 529 were 17.5 µM (inactive) and 21.3 µM (inactive), respectively.

In the case of `CCOC(=O)C(NC(=O)N(C1=NCC(C)S1)C1CCCCC1)(OC)C(F)(F)F` (configuration not stated), the GI50 in the experiment on DU-145 was 36.2 µM (inactive); in the experiment on HCT-15, 30.1 µM; in the experiment on BT-549 it was 32.3 µM (inactive); in the experiment on M14, 51.2 µM (inactive); in the experiment with 786-0, 15.5 µM (inactive); in the experiment with NCI-H23 it was 43.3 µM (inactive). Further, the GI50 was 22.6 µM (inactive) in the experiment with U-251; 16.4 µM (inactive) in the experiment with A498; 42.5 µM (inactive) in the experiment on Hs-578T; 39.6 µM (inactive) in the experiment with SR; 35.4 µM (inactive) with NCI-H460; 31.6 µM (inactive) in the experiment on HCT-116. Further, the GI50 in the experiment on NCI-H226 is 21.1 µM (inactive); in the experiment with CCRF-CEM it was 25.2 µM (inactive).

Regarding `COc1ccc(N(C)C(=O)N(C)c2ccc([N+](=O)[O-])cc2)cc1`, the GI50 was 90.6 µM (inactive) in the experiment with DU-145; 30.1 µM in the experiment on HCT-15; 44.8 µM (inactive) with BT-549; 34 µM (inactive) in the experiment with M14; 58.9 µM (inactive) in the experiment with 786-0; 34.6 µM (inactive) in the experiment on NCI-H23. Moreover, the GI50 with U-251 was 30.4 µM (inactive); with A498 it was 66.4 µM (inactive); in the experiment with Hs-578T, 6.4 µM (inactive); with SR, 19.5 µM (inactive); in the experiment on NCI-H460 it was 25.8 µM (inactive); in the experiment on HCT-116, 27.4 µM (inactive). The values for the GI50 in the experiment on NCI-H226 and in the experiment with CCRF-CEM were 23 µM (inactive) and 23.9 µM (inactive), respectively.

In the case of `COc1cc(CO)c(CC(=O)NCCCc2ccccc2)cc1OC`, the GI50 in the experiment with DU-145 was > 100 µM (inactive); in the experiment on HCT-15, more than 100 µM; in the experiment on BT-549, > 100 µM (inactive); in the experiment on M14, > 100 µM (inactive); with 786-0, > 100 µM (inactive); in the experiment with NCI-H23, > 100 µM (inactive). Also, the GI50 with U-251 was > 100 µM (inactive); in the experiment on A498 it was > 100 µM (inactive); in the experiment with Hs-578T, > 100 µM (inactive); in the experiment with SR, 9.06 µM (inactive); in the experiment on NCI-H460, > 100 µM (inactive); in the experiment on HCT-116 it was > 100 µM (inactive). Further, the GI50 with NCI-H226 and in the experiment on CCRF-CEM was > 100 µM (inactive) each time.
